Reference: patent publication EP1885364B1, “HALOGENATED QUINDOLINE DIMERS FOR THE TREATMENT OF CANCER” (Crystax Pharmaceuticals, S.L., priority 2005, dated 2006)

Legend:
Type in all cases: cell-based
A549 lung carcinoma = experiment: MTT in vitro cytotoxicity, A549; conditions: Homo sapiens, A549 cells, concentrations until 100 µM, incubation until 72 h
From the text: (§1) These compounds have been tested in a greater number of different cell lines. IC50 is the compound concentration at which 50% of a specific cell type die in a standardized assay, and thus a measure of cytotoxicity. Jurkat is a human leukaemia T cell line, GLC-4 is a human small-cell lung-carcinoma cell line, NIH-3T3 is a rat non-cancerous cell line, K-562 is a human chronic myelogenous leukemia cell line, A549 is a human lung carcinoma cell line, RPMI-1788 is a human leukocytes of peripherial blood from healthy […] cell line, MCF-7 is a human breast adenocarcinoma cell line, Capan-2 is a human pancreas adenocarcinoma cell line, Colo320HSR is a human colon carcinoma cell line, SW-837 is a human rectum adenocarcinoma cell line, IM-9 is a human bone marrow myeloma cell line, IMR-32 is a human neuroblastoma cell line and MT-4 is a human mixed heart's and peripheral blood's lymphocytes of patients with T-cell leukemia cell line. Table 2. Biological activities of IIIa-IIIg.
(§2) The in vitro cytotoxicity of the compounds of the present invention was evaluated by colorimetric assays with tetrazol salts (MTT) on Jurkat clon E6-1 leukemia, on GLC-4 clon carcinoma, on K-562 chronic myelogenous leukemia, on A549 lung carcinoma, on RPMI-1788 leukocytes of peripherial blood from healthy […], on MCF-7 breast adenocarcinoma, on Capan-2 pancreas adenocarcinoma, on Colo320HSR colon carcinoma, on SW-837 rectum adenocarcinoma, on IM-9 bone marrow myeloma, on IMR-32 neuroblastoma and on MT-4 mixed heart's and peripheral blood's lymphocytes of patients with T-cell leukemia human cell lines, according to the protocol described by Mosmann et al. (J. Immunol. Methods, 1983,65, 55-63) incorporated herein by reference. In all cases the concentrations used were until 100 µM and times of incubation until 72 h. […] Table 3. Biological activities.

[1] = tested on: RPMI-1788 leukocytes of peripherial blood from healthy person; experiment: MTT in vitro cytotoxicity, RPMI-1788; conditions: Homo sapiens, RPMI-1788 cells (from healthy person), concentrations until 100 µM, incubation until 72 h
From the text: as §1, §2

[2] = tested on: K-562 chronic myelogenous leukemia; experiment: MTT in vitro cytotoxicity, K-562; conditions: Homo sapiens, K562, K-562 cells, concentrations until 100 µM, incubation until 72 h
From the text: as §1, §2

[3] = tested on: Jurkat clon E6-1 leukemia; experiment: MTT in vitro cytotoxicity, Jurkat; conditions: Homo sapiens, Jurkat cells, concentrations until 100 µM, incubation until 72 h
From the text: (§3) IC50 is the compound concentration at which 50% of a specific cell type die in a standardized assay, and thus a measure of cytotoxicity. Jurkat is a human leukaemia T cell line, GLC-4 is a human small-cell lung-carcinoma cell line and NIH-3T3 is a rat non-cancerous cell line. [drawing 3]
as §1, §2

IM-9 bone marrow myeloma = experiment: MTT in vitro cytotoxicity, IM-9; conditions: Homo sapiens, IM-9 cells, concentrations until 100 µM, incubation until 72 h
Method: (§4) These compounds have been tested in a greater number of different cell lines. IC50 is the compound concentration at which 50% of a specific cell type die in a standardized assay, and thus a measure of cytotoxicity. […]
(§5) The in vitro cytotoxicity of the compounds of the present invention was evaluated by colorimetric assays with tetrazol salts (MTT) on Jurkat clon E6-1 leukemia, on GLC-4 clon carcinoma, on K-562 chronic myelogenous leukemia, on A549 lung carcinoma, on RPMI-1788 leukocytes of peripherial blood from healthy […], on MCF-7 breast adenocarcinoma, on Capan-2 pancreas adenocarcinoma, on Colo320HSR colon carcinoma, on SW-837 rectum adenocarcinoma, on IM-9 bone marrow myeloma, on IMR-32 neuroblastoma and on MT-4 mixed heart's and peripheral blood's lymphocytes of patients with T-cell leukemia human cell lines, according to the protocol described by Mosmann et al. (J. Immunol. […]

[4] = tested on: Colo320HSR colon carcinoma; experiment: MTT in vitro cytotoxicity, Colo320HSR; conditions: Homo sapiens, Colo-320HSR cells, concentrations until 100 µM, incubation until 72 h
Method: as §4, §5

[5] = tested on: Capan-2 pancreas adenocarcinoma; experiment: MTT in vitro cytotoxicity, Capan-2; conditions: Homo sapiens, Capan-2 cells, concentrations until 100 µM, incubation until 72 h
Method: as §4, §5

IMR-32 neuroblastoma = experiment: MTT in vitro cytotoxicity, IMR-32; conditions: Homo sapiens, IMR-32 cells, concentrations until 100 µM, incubation until 72 h
Method: as §4, §5

[6] = tested on: MCF-7 breast adenocarcinoma; experiment: MTT in vitro cytotoxicity, MCF-7; conditions: Homo sapiens, MCF7, MCF-7 cells, concentrations until 100 µM, incubation until 72 h
Method: as §4, §5

NIH-3T3 = experiment: Cytotoxicity in non-cancerous cell line NIH-3T3; conditions: NIH3T3; NIH-3T3 non-cancerous cell line
From the text: as §3, §1

[7] = tested on: MT-4 mixed heart's and peripheral blood's lymphocytes of patients with T-cell leukemia; experiment: MTT in vitro cytotoxicity, MT-4; conditions: Homo sapiens, MT4, MT-4 cells, concentrations until 100 µM, incubation until 72 h
Method: as §4, §5

[8] = tested on: SW-837 rectum adenocarcinoma; experiment: MTT in vitro cytotoxicity, SW-837; conditions: Homo sapiens, SW837, SW-837 cells, concentrations until 100 µM, incubation until 72 h
Method: as §4, §5

GLC-4 = experiment: MTT in vitro cytotoxicity, GLC-4; conditions: Homo sapiens, GLC4, GLC-4 cells, concentrations until 100 µM, incubation until 72 h
From the text: as §3, §1, §2

Row | Structure (SMILES) | IC50 (A549 lung carcinoma) [µM] | IC50 [1] [µM] | IC50 [2] [µM] | IC50 [3] [µM] | IC50 (IM-9 bone marrow myeloma) [µM] | IC50 [4] [µM] | IC50 [5] [µM] | IC50 (IMR-32 neuroblastoma) [µM] | IC50 [6] [µM] | IC50 (NIH-3T3) [µM] | IC50 [7] [µM] | IC50 [8] [µM] | IC50 (GLC-4) [µM]
1 | CN(CCCNC(=O)c1c2cc(Cl)ccc2nc2c1[nH]c1ccccc12)CCCNC(=O)c1c2cc(Br)ccc2nc2c1[nH]c1ccccc12 [IIId, N-[3-[[3-[11-((2-bromo-10H-indolo[3,2-b]quinoline)carbonyl)amino]-propyl]-methylamino]propyl]-2-chloro-10H-indolo[3,2-b]quinoline-11-carboxamide] | 12.9 | 3.5 | 5.3 | 0.6 | – | – | – | – | – | – | – | – | –
2 | CN(CCCNC(=O)c1c2cc(Cl)ccc2nc2c1[nH]c1ccccc12)CCCNC(=O)c1c2cc(Cl)ccc2nc2c1[nH]c1ccccc12 [IIIa, N,N'-(4-methyl-4-azaheptamethylene)-di-(-2-chloro-10H-indolo[3,2-b]quinoline)-11,11'-arboxamide] | 12.2 | 3 | 0.65 | 0.09 | 4.6 | 0.45 | 20.1 | 0.9 | 3.4 | 11.2 | 4.5 | 6.2 | 0.16
3 | O=C(O)c1c2cc(Cl)ccc2nc2c1[nH]c1ccccc12 [IIa] | – | – | – | > 25 | – | – | – | – | – | – | – | – | 15.7
4 | CN(CCCNC(=O)c1c2ccccc2nc2c1[nH]c1ccccc12)CCCNC(=O)c1c2ccccc2nc2c1[nH]c1ccccc12 [Ia, reference compound] | – | – | – | 0.97 | – | – | – | – | – | 6.77 | – | – | 1.45
5 | CN(CCCNC(=O)c1c2cc(Br)ccc2nc2c1[nH]c1ccccc12)CCCNC(=O)c1c2cc(Br)ccc2nc2c1[nH]c1ccccc12 [IIIc, N,N'-(4-methyl-4-azaheptamethylene)-di-(-2-bromo-10H-indolo[3,2-b]quinoline)-11,11'-carboxamide] | – | 9.1 | – | 0.8 | – | – | – | – | – | – | – | – | –
6 | CN(CCCNC(=O)c1c2cc(F)ccc2nc2c1[nH]c1ccccc12)CCCNC(=O)c1c2cc(Cl)ccc2nc2c1[nH]c1ccccc12 [IIIe, N-[3-[[3-[11-((2-chloro-10H-indolo[3,2-b]quinoline)carbonyl)amino]-propyl]-methylamino]propyl]-2-fluoro-10l-l-indolo[3,2-b]quinoline-11-carboxamide] | 11.6 | 2.9 | 6.1 | 0.5 | – | – | – | – | – | – | – | – | –
7 | O=C(O)c1c2cc(F)ccc2nc2c1[nH]c1ccccc12 [IIb] | – | – | – | 13 | – | – | – | – | – | – | – | – | 12
8 | O=C(O)c1c2cc(Br)ccc2nc2c1[nH]c1ccccc12 [IIc] | – | – | – | > 25 | – | – | – | – | – | – | – | – | –
9 | CN(CCCNC(=O)c1c2ccccc2nc2c1[nH]c1ccccc12)CCCNC(=O)c1c2cc(F)ccc2nc2c1[nH]c1ccccc12 [IIIf, N-[3-[[3-[11-((2-fluoro-10H-indolo[3,2-b]quinoline)carbonyl)amino]-propyl]-methylamino]propyl]-10H-indolo[3,2-b]quinoline-11-carboxamide] | 1.6 | 1.7 | 2.8 | 0.2 | – | – | – | – | – | – | – | – | –
10 | CN(CCCNC(=O)c1c2cc(F)ccc2nc2c1[nH]c1ccccc12)CCCNC(=O)c1c2cc(F)ccc2nc2c1[nH]c1ccccc12 [IIIb, N,N'-(4-methyl-4-azaheptamethylene)-di-(-2-fluoro-10H-indolo[3,2-b]quinoline)-11,11'-carboxamide] | 10 | 5.3 | 1.1 | 0.5 | 7.5 | 3.2 | 25.5 | 0.7 | 4.8 | 64.3 | 9 | 17.9 | –
11 | CN(CCCNC(=O)c1c2ccccc2nc2c1[nH]c1ccccc12)CCCNC(=O)c1c2cc(Cl)ccc2nc2c1[nH]c1ccccc12 [IIIg, N-[3-[[3-[11-((2-chloro-10H-indolo[3,2-b]quinoline)carbonyl)amino]-propyl]-methylamino]propyl]-10H-indolo[3,2-b]quinoline-11-carboxamide] | 6.2 | 3.2 | 5.8 | 0.7 | – | – | – | – | – | – | – | – | –
